The test system of the assay is P388. The experiment in a line: Inhibitory activity against P388 lymphocytic leukemia cells. The format is functional. The settings on record: Mus musculus, read-out: ED50 (the source's name).

Values after ≈ are worked out from the molar mass of the structure shown. Where a SMILES comes first, the peptide text is derived from it.

For `CC[C@H](C)[C@@H]1NC(=O)[C@@H]2CCCN2C(=O)[C@@H]2CCCN2C(=O)[C@H]([C@@H](C)CC)NC(=O)[C@H](Cc2ccc(O)cc2)NC(=O)[C@@H]2CCCN2C(=O)[C@@H]2CCCN2C(=O)[C@H](CC(C)C)NC(=O)[C@H]([C@@H](C)O)NC(=O)[C@H](Cc2ccccc2)NC1=O` [PHAKELLISTATIN 12] (cyclo(FTLPPYIPPI)), the EC50 came out at 2.8 µg/mL (≈ 2.46 µM).

Source of the values: ChEMBL document CHEMBL1136589, “Antineoplastic agents 390. Isolation and structure of phakellistatin 12 from a Chuuk archipelago marine sponge” (2003).
